According to PubChem BioAssay AID1996:
In brackets after ≈: the same amount, converted by molar mass.

settings: buffer; pH 7.4; 200.0 µM

Compared with Cc1cc(C(=O)NCC(c2ccco2)N(C)C)ccc1[N+](=O)[O-] (stereo unspecified), CS(=O)(=O)c1ccc(Cl)c(NC(=O)CNC(=O)c2ccc3c(c2)OCO3)c1 is higher in solubility kinetic: 39.7 µg/mL (≈ 125 µM) for the first, > 61.6 µg/mL for the second.

Compared with CCc1ccccc1NC(=O)COc1ccc2c(c1)OCO2, C[C@H](NC(=O)c1ccccc1)C(=O)N1CCN(Cc2ccc3c(c2)OCO3)CC1 is higher in solubility kinetic: 41.4 µg/mL (≈ 138 µM) for the first, > 59.3 µg/mL for the second.

CNS(=O)(=O)c1cccc(C(=O)OCC(=O)N2CCCC2)c1 and O=C1C(=O)N(CC(=O)N2CCCC2)c2ccccc21 are within 1.5-fold of each other in solubility kinetic: 45.2 µg/mL (≈ 138 µM) for the first, 38.2 µg/mL (≈ 148 µM) for the second.

Cc1ccc2cc(C)c(SCC(=O)NCC3CCCO3)nc2c1 (stereo unspecified) and COCc1cc(C)n(CC(=O)NCC2CCCO2)c(=O)c1C#N (stereo unspecified) are within 1.5-fold of each other in solubility kinetic: 48.2 µg/mL (≈ 146 µM) for the first, 41.8 µg/mL (≈ 131 µM) for the second.

NC(=O)C1CCCN(C(=O)c2ccc3c(c2)NC(=O)CS3)C1 (stereo unspecified) and CCOC(=O)C1CCN(CC(=O)N2CCc3ccccc32)CC1 cannot be ordered by solubility kinetic: > 47.9 µg/mL for the first, > 47.5 µg/mL for the second.

First: CC1(C)CC2CC(C)(CN2S(=O)(=O)c2ccccc2[N+](=O)[O-])C1 (stereo unspecified)
Second: CC(=O)c1cccn1S(=O)(=O)c1ccccc1
The solubility kinetic of the first is 15-fold lower: 2.4 µg/mL (≈ 7.09 µM) for the first, 36.9 µg/mL (≈ 148 µM) for the second.

Going from O=C(COC(=O)c1cccc(OC(F)F)c1)NC1CCCC1 to CC(=O)Nc1ccccc1OCC(=O)NC1CCCCC1C (stereo unspecified), the solubility kinetic rises from 28.2 µg/mL (≈ 90 µM) to > 45.7 µg/mL.

Going from O=C(COc1ccccc1)N1CCN(C(=O)c2ccccc2F)CC1 to Cc1ccc(N2CCN(C(=S)Nc3ccccc3)CC2)cc1, the solubility kinetic falls from > 51.4 µg/mL to 1 µg/mL (≈ 3.21 µM).

c1ccc(SCc2cn3cccnc3n2)nc1 and Cc1ccccc1CSCC(=O)NCCSc1ccccn1 cannot be ordered by solubility kinetic: > 36.3 µg/mL for the first, 49.1 µg/mL (≈ 148 µM) for the second.

Going from CCc1ccc(S(=O)(=O)NCC(O)COc2ccc(OC)cc2)cc1 (stereo unspecified) to COc1cc(OC)cc(C(=O)NCCSCc2ccc(Cl)cc2)c1, the solubility kinetic falls from 51.9 µg/mL (≈ 142 µM) to 5.2 µg/mL (≈ 14.2 µM) (10-fold).

First: Cc1cccc(N=C2CSC(=O)N2)c1
Second: O=C1CNC(c2ccccc2Cl)c2cc(Br)ccc2N1 (stereo unspecified)
The solubility kinetic of the first is higher: > 30.9 µg/mL for the first, 0.8 µg/mL (≈ 2.28 µM) for the second.

Going from O=c1oc2ccccc2c(O)c1Cc1cc(Cl)c2cccnc2c1O to COc1cc(/C=C/c2nc3ccccc3c(=O)[nH]2)cc(Cl)c1O, the solubility kinetic falls from > 53.1 µg/mL to 43.2 µg/mL (≈ 131 µM).

Compared with CCN(C(=O)/C=C/c1ccc(OC)cc1)C1CCCCC1, COc1ccc(/C=C/C(=O)NC(=S)N2CCSCC2)cc1 is 3.5-fold lower in solubility kinetic: 38.3 µg/mL (≈ 133 µM) for the first, 11.1 µg/mL (≈ 34.4 µM) for the second.

First: CCN(CC)C(=O)CSc1nc(C)cc(C)c1C#N
Second: Nc1cc(N)nc(SCC(=O)NCCC2=CCCCC2)n1
The solubility kinetic of the first is lower: 15.1 µg/mL (≈ 54.4 µM) for the first, > 46.1 µg/mL for the second.

COc1ccc(/C=N/NC(N)=S)cc1 and COc1ccc(NC(=O)CSc2nncn2C)cc1 cannot be ordered by solubility kinetic: > 31.4 µg/mL for the first, > 41.7 µg/mL for the second.

Going from Cc1ccc(S(=O)(=O)n2ccc3c2CCCC3=O)cc1 to NC(=O)c1ccc(Oc2ccc3c(c2)CCC3)c([N+](=O)[O-])c1, the solubility kinetic falls from > 43.4 µg/mL to 5.4 µg/mL (≈ 18.1 µM).

O=C(NCCCn1ccnc1)c1ccc(C(F)(F)F)cc1 and CCC(Oc1ccccc1F)C(=O)NCCCn1ccnc1 (stereo unspecified) cannot be ordered by solubility kinetic: > 44.6 µg/mL for the first, > 45.8 µg/mL for the second.

Going from CCOc1ccc(N2C(=O)c3ccccc3NC2(C)CC)cc1 (stereo unspecified) to CCOc1ccc(-c2cn3ccccc3n2)cc1, the solubility kinetic falls from > 46.6 µg/mL to 18.1 µg/mL (≈ 76 µM).

COc1ccc(OC)c(NC(=O)c2cc3c(cc2Cl)N2CCCCCC2=NS3(=O)=O)c1 and COc1cc(S(=O)(=O)N2CCOCC2)ccc1NC(=O)COC(=O)c1cc(OC)c(OC)c(OC)c1 are within 1.5-fold of each other in solubility kinetic: 3.7 µg/mL (≈ 7.98 µM) for the first, 4.5 µg/mL (≈ 8.58 µM) for the second.

First: COc1ccccc1OCC(=O)NC1CCCc2ccccc21 (stereo unspecified)
Second: COc1ccccc1CNC(=O)COC(=O)c1cc(C)nc2ccccc12
The solubility kinetic of the first is 2.8-fold higher: 41.6 µg/mL (≈ 134 µM) for the first, 14.6 µg/mL (≈ 40.1 µM) for the second.

First: COc1ccc(N2CC(NC(=O)Nc3ccccc3)CC2=O)cc1 (stereo unspecified)
Second: O=C(Nc1ccccc1)OCCOc1ccc(Br)cc1
The solubility kinetic of the first is higher: 19.7 µg/mL (≈ 60.5 µM) for the first, < 0.7 µg/mL for the second.

First: Cn1ccnc1SCC(=O)NCC(=O)Nc1ccc(F)c(F)c1F
Second: O=C(NCCNC(=O)c1cnccn1)c1cccc(Cl)c1
The solubility kinetic of the first is higher: > 53.7 µg/mL for the first, 42.7 µg/mL (≈ 140 µM) for the second.

First: O=[N+]([O-])c1ccc(OCCO)nc1
Second: O=C1OC(CCl)CN1Cc1ccc([N+](=O)[O-])cc1 (stereo unspecified)
The solubility kinetic of the first is lower: 26.7 µg/mL (≈ 145 µM) for the first, > 40.6 µg/mL for the second.

COC(=O)C1CSC(C)(C)C(=O)N1 (stereo unspecified) and Cc1ccc2c(C)c(C(=O)NCCN3CCCC(O)C3)oc2c1C (stereo unspecified) cannot be ordered by solubility kinetic: > 30.5 µg/mL for the first, 42.3 µg/mL (≈ 128 µM) for the second.

CCn1cc(S(=O)(=O)Nc2cccnc2)cn1 and CC(Nc1ccccc1)c1cccnc1 (stereo unspecified) cannot be ordered by solubility kinetic: > 37.8 µg/mL for the first, > 29.7 µg/mL for the second.

Going from Cc1ccsc1C(=O)N1CCN(c2ccccn2)CC1 to O=C(NCc1ccc(Cl)cc1)N1CCc2ccccc2C1, the solubility kinetic falls from > 43.1 µg/mL to 4.5 µg/mL (≈ 15 µM).

First: CCC(C)(C)c1ccc(OCC(=O)Nc2ccncc2)cc1
Second: COc1ccc(-c2ncncc2-c2ccc(Cl)cc2)c(O)c1
The solubility kinetic of the first is 2.4-fold higher: 2.6 µg/mL (≈ 8.71 µM) for the first, 1.1 µg/mL (≈ 3.52 µM) for the second.

Compared with Cc1cc(CSCc2ccc(Cl)cc2)no1, COc1ccc(Cl)cc1NC(=S)NCc1cccnc1 is higher in solubility kinetic: 2.2 µg/mL (≈ 8.67 µM) for the first, > 46.2 µg/mL for the second.

Going from CS(=O)(=O)c1ccc(NS(=O)(=O)c2ccc(Cl)c(C(=O)NC3=NCCS3)c2)cc1 to OCCN1CCN(C(=S)Nc2ccc(SC(F)F)cc2)CC1, the solubility kinetic rises from 24 µg/mL (≈ 50.6 µM) to > 52.1 µg/mL.

First: COc1cc(CN2CCCCCC2)cc(Br)c1O
Second: Cc1cc2cc(CNC(=S)NC3CCCCC3)ccc2[nH]1
The solubility kinetic of the first is 3.2-fold higher: 39.6 µg/mL (≈ 126 µM) for the first, 12.5 µg/mL (≈ 41.5 µM) for the second.

With CCc1ccccc1N1C(=O)C2C3C=CC(CC3)C2C1=O (stereo unspecified) the solubility kinetic was > 42.2 µg/mL.
